Values of other authors in patent publication US20230174671A1, “COMPOSITIONS AND METHODS FOR TREATING VIRAL INFECTIONS” (BIOVISTA, INC., priority 2020, published 2023).
Counter-ions that a name gives are not always drawn.

Assays:
[1] = system: human coronavirus NL63 (HCoV-NL63); conditions: HeLa cells expressing TMPRSS2; Kawase et al, 2012
SARS-CoV = conditions: HeLa cells expressing TMPRSS2; Kawase et al, 2012

CN(C)C(=O)COC(=O)Cc1ccc(OC(=O)c2ccc(NC(=N)N)cc2)cc1 [camostat mesylate]
block of infection by human coronavirus NL63 (HCoV-NL63) [1]: partially block infection
block of infection by SARS-CoV (SARS-CoV): partially block infection
